Source: patent US7749528B2, “Implantable and sealable medical device for unidirectional delivery of therapeutic agents to tissues” (priority 2001, dated 2010)

How the values were obtained:
[1] = cited from earlier work
[2] = Phase I study of the toxicity of local carboplatin; format: in vivo; conditions: following 6 local injections of carboplatin
Method: Protection Against Local Orbital or Periocular Toxicity: The periocular delivery of therapeutic agents is employed when increased amounts of the agent are needed inside the eye. In the case of advanced intraocular retinoblastoma, tumor cells in the vitreous gel are not exposed to sufficient amounts of the chemotherapeutic agents. For this reason, local periocular carboplatin is added to the regimen of systemic chemotherapy for advanced disease. […] Mulvihill et al. reported the complications associated with periocular injections of the chemotherapeutic agent carboplatin in infants with retinoblastoma. This emphasizes the need of a sealed system for unidirectional delivery of toxic agents to the eye.

[3] = cited from earlier work; remark: listed apart in the source
[4] = administered locally; cited from earlier work

Q: With `CO[C@@H]1[C@H](N(C)C(=O)c2ccccc2)C[C@H]2O[C@]1(C)n1c3ccccc3c3c4c(c5c6ccccc6n2c5c31)C(=O)NC4` [PKC412] as the compound, how does the “side effects when administered orally” value ([1]; administered orally) read?
A: nausea and diarrhea

Q: What about the “toxicity by the periocular route” value ([1]; periocular route, simple injections) of the same compound?
A: ocular irritation and toxicity was observed

Q: Which long-term toxic effects [2] does the source give for `N.N.O=C([O-])C1(C(=O)[O-])CCC1.[Pt+2]` [carboplatin] here?
A: atrophy of the orbital fat and connective tissue

Q: And the local tissue tolerance ([3]; bolus injected into the periocular space)?
A: well tolerated by the local tissue

Q: What about the “complications after periocular injection” value ([3]; periocular injections, after a certain period following the injection) of the same compound?
A: ocular motility problems, including restriction of the eye movements

Q: Which local toxicity [4] does the source give for `COc1cc([C@@H]2c3cc4c(cc3[C@@H](O[C@@H]3O[C@@H]5CO[C@@H](C)O[C@H]5[C@H](O)[C@H]3O)[C@H]3COC(=O)[C@H]23)OCO4)cc(OC)c1O` [Etoposide] here?
A: extremely toxic when administered locally
